Experimental data taken from publication PMC7576482, “Inhibitory Activity of Quercetin 3-O-Arabinofuranoside and 2-Oxopomolic Acid Derived from Malus domestica on Soluble Epoxide Hydrolase” (Molecules, 2020).
Where “and” joins values, the source holds several entries; their conditions need not be identical. Identical values can stand only once.

Columns and labels:
[1] = biological target: T1, soluble epoxide hydrolase (sEH) (Homo sapiens, UniProt P34913); assay: sEH enzyme kinetic study (Lineweaver-Burk and Dixon plots); format: biochemical; settings: for Ki: Dixon plots, read-out: ki (inhibition constant); for Binding Mode: Lineweaver-Burk plots
T1 construct: purchased Cayman (Ann Arbor, MI, USA) 10011669
T1 sequence (P34913 1-555): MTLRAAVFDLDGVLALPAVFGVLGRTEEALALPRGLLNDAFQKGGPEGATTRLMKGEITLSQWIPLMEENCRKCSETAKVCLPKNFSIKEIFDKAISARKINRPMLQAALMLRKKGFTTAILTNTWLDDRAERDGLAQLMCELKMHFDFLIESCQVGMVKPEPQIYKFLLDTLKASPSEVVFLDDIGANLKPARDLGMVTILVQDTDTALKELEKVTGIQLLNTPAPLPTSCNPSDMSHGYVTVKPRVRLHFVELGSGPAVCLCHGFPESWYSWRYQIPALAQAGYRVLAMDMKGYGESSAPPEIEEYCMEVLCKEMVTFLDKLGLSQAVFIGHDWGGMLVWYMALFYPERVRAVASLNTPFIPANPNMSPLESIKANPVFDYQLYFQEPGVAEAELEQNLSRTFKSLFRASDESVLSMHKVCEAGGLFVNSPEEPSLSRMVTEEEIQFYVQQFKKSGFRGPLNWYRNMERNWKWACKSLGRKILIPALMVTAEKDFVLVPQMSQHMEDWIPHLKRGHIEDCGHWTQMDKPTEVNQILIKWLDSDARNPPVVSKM
Procedure: The enzyme kinetic study was performed to find the binding position of the inhibitor into sEH. The initial velocity (v0) for the three different concentrations of inhibitors was calculated relative to the substrate concentrations (1.1, 1.5, 2.2, 3.1, 6.2, and 12.5 μM). The inverse of these concentrations and v0 values were used to construct Lineweaver-Burk plots.
As presented in Figure 2F–I and Table 1, the inhibition constant (ki) values were calculated by Dixon plots. Inhibitors 1–4 were calculated to be ki values ranging from 2.9 ± 0.8 μM to […]. Among them, inhibitor 4 had the strongest ki value of 2.9 ± 0.8 μM.
(§1) The assays were carried out at 37 °C in 0.025-M bis-tris-HCL buffer, pH 7.0, containing 0.1% Bovine Serum Albumin B. PHOME (~2.6 μM) was used as a substrate. The final volume of tests was […] in ~10 ng/mL sEH. The products were monitored at 330 nm of excitation and 465 nm emission for 40 min.

[2] = biological target: T1, soluble epoxide hydrolase (sEH); assay: sEH assay (PHOME substrate, fluorescence); format: biochemical; settings: triplicated experiments; 37 °C, pH 7.0, PHOME substrate; read-out: IC50 Value, inhibitory activity on sEH
Procedure: The inhibitory activity of each concentration of compound was calculated based on the difference in enzyme products with and without the presence of the compound using Equation (1). […] To calculate the half-maximal inhibitory concentration of the inhibitors (IC50), inhibition rate values were fitted using Equation (2).
as §1
The inhibition rate was calculated according to the following equations:Inhibition effect rate (%) = [(ΔC − ΔS)/ΔC] × 100(1) where ΔC and ΔS represent the gap of control and inhibitor during reaction, respectively. y = y0 + [(a × x)/(b + x)](2) where “y0” is the point on the axis of ordinates, “a” denotes the difference between the maximum and minimum values, and “b” refers to the “x” value at 50%.

[3] = design: method as in PMID 19794443; settings: cited from earlier work

| Ki [1] [µM] | Binding Mode [1] | IC50 [2] | SMILES | solubility [3] |
| --- | --- | --- | --- | --- |
| 38.5 | Noncompetitive | 84.5 ± 9.5 µM | C[C@H]1[C@H](C)CC[C@]2(C(=O)O)CC[C@]3(C)C(=CC[C@@H]4[C@@]5(C)CC[C@H](O)C(C)(C)[C@@H]5CC[C@]43C)[C@H]12 [Compound 2, ursolic acid] | – |
| 34.6 | Noncompetitive | 51.3 ± 4.9 µM | C[C@H]1[C@H](C)CC[C@]2(C(=O)O)CC[C@]3(C)C(=CC[C@@H]4[C@@]5(C)C[C@@H](O)[C@H](O)C(C)(C)[C@@H]5CC[C@]43C)[C@H]12 [Compound 3, corosolic acid] | – |
| 2.9 | Noncompetitive | < 50 µM and 11.4 µM | C[C@@H]1CC[C@]2(C(=O)O)CC[C@]3(C)C(=CC[C@@H]4[C@@]5(C)CC(=O)[C@H](O)C(C)(C)[C@@H]5CC[C@]43C)[C@@H]2[C@]1(C)O [Compound 4, 2-oxopomolic acid] | – |

Further lines, the compound ahead of its results:

| SMILES | Ki [1] [µM] | Binding Mode [1] | IC50 [2] | solubility [3] |
| --- | --- | --- | --- | --- |
| O=c1c(OC2O[C@H](CO)[C@@H](O)[C@@H]2O)c(-c2ccc(O)c(O)c2)oc2cc(O)cc(O)c12 (stereo in doubt) [Compound 1, quercetin 3-O-arabinofuranoside] | 39.5 | Mixed | < 50 µM and 39.3 µM | – |
| O=C(O)CCCCCCCCCCCNC(=O)NC12CC3CC(CC(C3)C1)C2 [AUDA, 12-(3-adamantan-1-yl-ureido)dodecanoic acid] | – | – | – | low solubility |
